Test results from patent US20070167349A1, “Estrogen cancer therapy” (Cell Therapeutics, Inc., priority 2005, published 2007).

Assays:
[1] = tested on: HT-29 human CRC xenograft tumor model; test: Effect of circulating estrogen on tumor growth; format: in vivo, female CD nu/nu mice; conditions: increased levels of estrogen, s.c. controlled release pellets 0.17, 0.36, 0.72 mg/60 days
[2] = target: T1, ERβ (Homo sapiens, UniProt Q92731); test: ERβ expression (western blot) and activation (RT-PCR of E-Cadherin, Id-2) in xenograft tumors; format: in vivo; conditions: HT-29 and H460 xenograft tumors, E2 supplements
T1 construct: proteins were extracted by homogenization in RIPA buffer; from tissue; host or cells: HT-29 and H460 human xenograft tumours in female CD nu/nu mice
T1 sequence (Q92731 whole entry): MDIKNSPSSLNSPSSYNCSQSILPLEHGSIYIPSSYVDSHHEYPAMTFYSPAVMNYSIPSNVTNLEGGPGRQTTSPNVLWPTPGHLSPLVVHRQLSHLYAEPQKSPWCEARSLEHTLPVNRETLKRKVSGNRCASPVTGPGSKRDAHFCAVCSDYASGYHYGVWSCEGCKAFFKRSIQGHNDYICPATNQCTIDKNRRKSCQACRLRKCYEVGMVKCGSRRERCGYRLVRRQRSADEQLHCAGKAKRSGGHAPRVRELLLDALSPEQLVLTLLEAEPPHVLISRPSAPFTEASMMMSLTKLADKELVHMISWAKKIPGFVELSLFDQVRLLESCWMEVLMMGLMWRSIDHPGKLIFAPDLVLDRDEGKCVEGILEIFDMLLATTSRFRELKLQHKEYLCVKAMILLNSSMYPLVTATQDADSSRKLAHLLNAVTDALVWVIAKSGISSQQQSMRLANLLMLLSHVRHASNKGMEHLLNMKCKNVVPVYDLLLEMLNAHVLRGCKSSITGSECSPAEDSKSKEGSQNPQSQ
Method: ERα, ERβ, E-Cadherin and Id-2 gene expression was determined by RT-PCR, relating their RNA expression to that of GAPDH gene. Total RNA extracted from tumors was reversely transcribed by Thermoscript RT-PCR System (INVITROGEN). The cDNA generated was used as template for PCR with primers specific for ERα and β, E-Cadherin and Id-2.
Western blot analysis was performed as follows: proteins were extracted by homogenization in RIPA buffer and their content was determined by Bio-Rad Protein Assay. Protein aliquots were separated by size on 10% SDS-PAGE and transferred to nitrocellulose membrane. Immunodetection was performed using: anti-ERa Polyclonal Ab (HC-20, Santa Cruz Biotechnologies), […] Polyclonal Ab (06-629, Upstate Biotechnologies), anti-α-Actin (Sigma), and anti-α-Tubulin (Santa CruzBiotechnologies).
The effect of estradiol on ERβ expression in HT-29 human CRC and H460 human NSCLC was analyzed by western blot (FIGS. 9 and 10, respectively.).
The effect of estradiol on ERβ activation in HT-29 human CRC and H460 human NSCLC cells was analyzed by RT-PCR, where increased expression of the E-Cadherin gene (in HT-29 cells) and increased expression of the Id-2 gene (in H460 cells) is indicative of ERP activation (FIGS. 11 and 12, respectively.).

[3] = tested on: cathepsin B; test: Cathepsin B activity assay in tumor homogenate (Z-Arg-Arg-AMC); format: in vivo; conditions: HT-29 tumors; increased levels of estrogen, s.c. pellets
Method: Cathepsin B activity assay was performed as follows: proteins were extracted by homogenization in cathepsin B buffer in ratio of 1 ml of buffer per 100 mg of tissue. The test utilized the ability of cathepsin B to digest the synthetic substrate Z-Arg-Arg-AMC. Released AMC was determined fluorometrically at excitation wavelength 390 nm and emission wave-length 460 nm. The activity of cathepsin B was quantified versus an AMC standard curve.

[4] = tested on: NCI-H460 human lung carcinoma; conditions: H460 tumor cells
[5] = tested on: NSCLC; test: Phase III study (STELLAR 3): CT-2103/PPX + carboplatin vs paclitaxel + carboplatin, overall survival by estrogen level; format: in vivo, human; conditions: CT-2103 210 mg/m^2 + carboplatin AUC 6 vs paclitaxel 225 mg/m^2 + carboplatin AUC 6
From the text: The experiments and results presented in example 1 describe the correlation between estrogen levels and treatment with CT-2103 versus paclitaxel, as measured by overall survival (OS). The data depicted in FIGS. 1 and 2 were derived from a multinational, phase III, open-label study. […] Randomization was stratified to minimize potential imbalances between the 2 treatment arms. After they were selected for the study, patients were stratified by disease stage (IV vs other), gender, geographic location (US vs. Western Europe and Canada vs. rest of the world), and history of brain metastases (yes vs. no).
From the initial sample set, a subset consisting of either high or low estrogen women was analyzed. […] Estrogen levels in women were determined by a competitive immunoassay (e.g., DPC […] 2000 Analyzer, NY; DPC […] Analyzer, Ireland). […]
Patients received CT-2103/carboplatin or paclitaxel/carboplatin, by intravenous infusion, on day 1 of each 21-day cycle for a total of 6 cycles. Toxicities were evaluated at each patient visit. Hematology, clinical chemistry, and coagulation parameters were evaluated before and during the study period. […] The efficacy and safety outcomes of this study were monitored by an independent Data Monitoring Committee (DMC).
Efficacy of the treatments was determined by evaluation of tumor burden according to RECIST. […]

[6] = tested on: NSCLC; test: Composite analysis of two phase III studies (STELLAR 3 and STELLAR 4): survival by sex and age, PPX vs control; format: in vivo, human; conditions: for HR: PPX vs CONTROL
Method: Two phase III studies, enrolling a total of 781 patients with NSCLC and a poor performance status (PS2), were conducted. […] In order to study the effect of sex and estrogen on survival among the various treatment groups, the results from both phase III clinical trials were combined and a composite analysis performed.
Functional menopausal status was assigned based on age and pretreatment estradiol levels, when available. The study was a composite of results from both clinical studies.

[7] = tested on: HT-29 human CRC xenograft tumor model; conditions: associated with increased cathepsin B activity (E2 supplemented)
Method: Antitumor activity parameters were determined as follows: • 1. Tumor weight inhibition % (TWI %) equals 100 minus (TW of treated divided by TW of control) times 100, which was evaluated at day 60 from pellet implant. • 2. Tumor growth delay (TGD): TGD equals TG Treated minus TG Control, where TG is the mean time, in days, for the tumor to reach a weight of 1 gram (g). • 3. Log cell kill (LCK) was calculated by the formula: LCK equals ((TGD 1 g) divided by 3.32) times DT, where DT is the time (days) necessary for the tumor to double in volume, in control and experimental groups.
Statistical analyses were performed using one-way ANOVA Bonferroni post test.

Row | Molecule | tumor weight [1] | ERβ activation and/or expression [2] | cathepsin B activity [3] | mechanism of uptake of intact PPX into the cellular compartment [4] | overall survival (OS) ([5]; women with postmenopausal (low) estrogen levels) | overall survival (OS) ([5]; women with premenopausal (high) estrogen levels) | OS ([6]; FEMALE) | HR ([6]; FEMALE) | OS ([6]; MALE) | HR ([6]; MALE) | OS ([6]; women under 55 years of age, PPX vs control arm) | PPX antitumor activity [7]
1 | C[C@]12CC[C@@H]3c4ccc(O)cc4CC[C@H]3[C@@H]1CC[C@@H]2O [17β estradiol, 17β Estradiol] | increases | induce ERβ activation and/or expression | increases |  |  |  |  |  |  |  |  | 
2 | paclitaxel poliglumex [PPX] |  |  |  | energy-dependent endocytosis, in a dose- and time-dependent manner | no apparent effect on survival | improved outcome | 285 days | 0.70 | 220 days | 1.05 | prolonged | enhanced
